In patent US20250296953A1, “3,4-THIAZOLO-STEROIDS AND METHODS OF MAKING AND USING THE SAME” (Arkansas State University - Jonesboro, priority 2018, published 2025):
Where two headings read alike, the source gives them in different places.

Key:
NCI-H522 (NSCLC) = assay: NCI 60 one dose screen; assay type: cell-based, human; details: Non-small Cell Lung Cancer
SF-295 = assay: NCI 60 one dose screen; assay type: cell-based, human; details: one dose; CNS Cancer; SF-295
[1] = system: 60 different human tumor cell lines; details: for GI50 / TGI: five dose
[2] = A549/ATCC (Non-small Cell Lung Cancer)
[3] = EKVX (Non-small Cell Lung Cancer)
[4] = HOP-62 (Non-small Cell Lung Cancer)
[5] = HOP-92 (Non-small Cell Lung Cancer)
[6] = NCI-H23 (Non-small Cell Lung Cancer)
[7] = NCI-H226 (Non-small Cell Lung Cancer)
[8] = NCI-H322M (Non-small Cell Lung Cancer)
[9] = NCI-H460 (Non-small Cell Lung Cancer)
[10] = NCI-H522 (Non-small Cell Lung Cancer)

Question: With `C[C@]12CCc3nc(Nc4ccc(O)cc4)sc3C1=CC[C@@H]1[C@@H]2CC[C@]2(C)C(=O)CC[C@@H]12` [IIa.35] as the compound, how does the “Growth Percent” value (NCI-H522 (NSCLC)) read?
Answer: −55.25%

Question: And the “Growth Percent” value (SF-295)?
Answer: 52.47%

Question: And the CC50 [1]?
Answer: > 100000 nM

Question: And the GI50 ([1]; 786-0 (Renal Cancer))?
Answer: 1800 nM

Question: What about the TGI ([1]; 786-0 (Renal Cancer)) of the same compound?
Answer: 3.82

Question: What about the GI50 ([1]; A498 (Renal Cancer)) of the same compound?
Answer: 14200 nM

Question: What about the TGI ([1]; A498 (Renal Cancer)) of the same compound?
Answer: 8.06E−5

Question: And the GI50 [1, 2]?
Answer: 4420 nM

Question: What about the TGI [1, 2] of the same compound?
Answer: >1.00E−4

Question: What about the GI50 ([1]; ACHN (Renal Cancer)) of the same compound?
Answer: 2920 nM

Question: And the TGI ([1]; ACHN (Renal Cancer))?
Answer: 9.29E−6

Question: What about the GI50 ([1]; BT-549 (Breast Cancer)) of the same compound?
Answer: 3130 nM

Question: What about the TGI ([1]; BT-549 (Breast Cancer)) of the same compound?
Answer: >1.00E−4

Question: What about the GI50 ([1]; CAKI-1 (Renal Cancer)) of the same compound?
Answer: 1930 nM

Question: And the TGI ([1]; CAKI-1 (Renal Cancer))?
Answer: 3.97E−6

Question: And the GI50 ([1]; CCRF-CEM (Leukemia))?
Answer: 2470 nM

Question: What about the TGI ([1]; CCRF-CEM (Leukemia)) of the same compound?
Answer: >1.00E−4

Question: And the GI50 ([1]; COLO 205 (Colon Cancer))?
Answer: 2000 nM

Question: And the TGI ([1]; COLO 205 (Colon Cancer))?
Answer: 3.90E−6

Question: And the GI50 ([1]; DU-145 (Prostate Cancer))?
Answer: 1660 nM

Question: What about the TGI ([1]; DU-145 (Prostate Cancer)) of the same compound?
Answer: 3.14E−6

Question: And the GI50 [1, 3]?
Answer: 10400 nM

Question: What about the TGI [1, 3] of the same compound?
Answer: 4.00E−4

Question: And the GI50 ([1]; HCC-2998 (Colon Cancer))?
Answer: 4110 nM

Question: What about the TGI ([1]; HCC-2998 (Colon Cancer)) of the same compound?
Answer: >1.00E−4

Question: What about the GI50 ([1]; HCT-15 (Colon Cancer)) of the same compound?
Answer: 1660 nM

Question: And the TGI ([1]; HCT-15 (Colon Cancer))?
Answer: 4.40E−6

Question: And the GI50 ([1]; HCT-116 (Colon Cancer))?
Answer: 1900 nM

Question: And the GI50 ([1]; HL-60(TB) (Leukemia))?
Answer: 2570 nM

Question: What about the TGI ([1]; HL-60(TB) (Leukemia)) of the same compound?
Answer: 7.27E−6

Question: And the GI50 [1, 4]?
Answer: 3280 nM

Question: What about the TGI [1, 4] of the same compound?
Answer: 1.26E−5

Question: What about the GI50 [1, 5] of the same compound?
Answer: 2390 nM

Question: And the TGI [1, 5]?
Answer: 5.65E−6

Question: And the GI50 ([1]; HS 578T (Breast Cancer))?
Answer: 3380 nM

Question: What about the TGI ([1]; HS 578T (Breast Cancer)) of the same compound?
Answer: >1.00E−4

Question: And the GI50 ([1]; HT29 (Colon Cancer))?
Answer: 2130 nM

Question: And the TGI ([1]; HT29 (Colon Cancer))?
Answer: 5.59E−6

Question: What about the GI50 ([1]; IGROV1 (Ovarian Cancer)) of the same compound?
Answer: 1990 nM

Question: And the TGI ([1]; IGROV1 (Ovarian Cancer))?
Answer: 5.02E−6

Question: And the GI50 ([1]; K-562 (Leukemia))?
Answer: 2960 nM

Question: What about the TGI ([1]; K-562 (Leukemia)) of the same compound?
Answer: >1.00E−4

Question: And the GI50 ([1]; KM12 (Colon Cancer))?
Answer: 1930 nM

Question: What about the TGI ([1]; KM12 (Colon Cancer)) of the same compound?
Answer: 4.06E−6

Question: What about the GI50 ([1]; LOX IMVI (Melanoma)) of the same compound?
Answer: 1580 nM

Question: And the TGI ([1]; LOX IMVI (Melanoma))?
Answer: 3.04E−6

Question: And the GI50 ([1]; M14 (Melanoma))?
Answer: 2680 nM

Question: What about the GI50 ([1]; MALME-3M (Melanoma)) of the same compound?
Answer: 1810 nM

Question: And the TGI ([1]; MALME-3M (Melanoma))?
Answer: 4.03E−6

Question: What about the GI50 ([1]; MCF7 (Breast Cancer)) of the same compound?
Answer: 1660 nM

Question: And the TGI ([1]; MCF7 (Breast Cancer))?
Answer: 4.26E−6

Question: And the GI50 ([1]; MDA-MB-231/ATCC (Breast Cancer))?
Answer: 3220 nM

Question: What about the GI50 ([1]; MDA-MB-435 (Melanoma)) of the same compound?
Answer: 2080 nM

Question: What about the TGI ([1]; MDA-MB-435 (Melanoma)) of the same compound?
Answer: 5.32E−6

Question: And the GI50 ([1]; MDA-MB-468 (Breast Cancer))?
Answer: 2170 nM

Question: And the TGI ([1]; MDA-MB-468 (Breast Cancer))?
Answer: 5.80E−6

Question: What about the GI50 ([1]; MOLT-4 (Leukemia)) of the same compound?
Answer: 2380 nM

Question: What about the TGI ([1]; MOLT-4 (Leukemia)) of the same compound?
Answer: >1.00E−4

Question: What about the GI50 [1, 6] of the same compound?
Answer: 3960 nM

Question: What about the TGI [1, 6] of the same compound?
Answer: >1.00E−4

Question: What about the GI50 [1, 7] of the same compound?
Answer: 2860 nM

Question: And the TGI [1, 7]?
Answer: 8.52E−6

Question: And the GI50 [1, 8]?
Answer: 6400 nM

Question: What about the TGI [1, 8] of the same compound?
Answer: >1.00E−4

Question: What about the GI50 [1, 9] of the same compound?
Answer: 3010 nM

Question: What about the TGI [1, 9] of the same compound?
Answer: 1.05E−5

Question: And the GI50 [1, 10]?
Answer: 1420 nM

Question: What about the TGI [1, 10] of the same compound?
Answer: 2.96E−6

Question: What about the GI50 ([1]; NCI/ADR-RES (Ovarian Cancer)) of the same compound?
Answer: 3270 nM

Question: What about the TGI ([1]; NCI/ADR-RES (Ovarian Cancer)) of the same compound?
Answer: >1.00E−4

Question: And the GI50 ([1]; OVCAR-3 (Ovarian Cancer))?
Answer: 1710 nM

Question: What about the TGI ([1]; OVCAR-3 (Ovarian Cancer)) of the same compound?
Answer: 3.38E−6

Question: What about the GI50 ([1]; OVCAR-4 (Ovarian Cancer)) of the same compound?
Answer: 2030 nM

Question: What about the GI50 ([1]; OVCAR-5 (Ovarian Cancer)) of the same compound?
Answer: 3910 nM

Question: And the TGI ([1]; OVCAR-5 (Ovarian Cancer))?
Answer: >1.00E−4

Question: What about the GI50 ([1]; OVCAR-8 (Ovarian Cancer)) of the same compound?
Answer: 3220 nM

Question: What about the TGI ([1]; OVCAR-8 (Ovarian Cancer)) of the same compound?
Answer: >1.00E−4

Question: And the GI50 ([1]; PC-3 (Prostate Cancer))?
Answer: 2490 nM

Question: What about the TGI ([1]; PC-3 (Prostate Cancer)) of the same compound?
Answer: 8.15E−6

Question: And the GI50 ([1]; RXF 393 (Renal Cancer))?
Answer: 1780 nM

Question: What about the TGI ([1]; RXF 393 (Renal Cancer)) of the same compound?
Answer: 4.14E−6

Question: What about the GI50 ([1]; SF-268 (CNS Cancer)) of the same compound?
Answer: 3370 nM

Question: And the TGI ([1]; SF-268 (CNS Cancer))?
Answer: 4.00E−4
